PubChem BioAssay AID256 (DTP/NCI, 2004)
Several values for one entry are separate records, joined by “and”; a condition that tells them apart may be missing. Equal entries are not always repeated. Toxic doses and inconclusive results are not listed.

Tested on: CD2F1 mice, L1210 leukemia ip, survival T/C
Test: NCI In Vivo Anticancer Drug Screen. Data for tumor model L1210 Leukemia (intraperitoneal) in CD2F1 (CDF1) mice
Details: higher = longer survival
In short: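 Mice carrying a transplanted tumor received test compound or vehicle alone. The value is the measurement in the treated group divided by that in the vehicle-treated control group.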

[1] = endpoint: mean survival time, dose: 25.0 mg/kg/injection, schedule: Q01DX001 (ip), vehicle: saline with Tween-80
[2] = endpoint: mean survival time, dose: 50.0 mg/kg/injection, schedule: Q01DX001 (ip), vehicle: saline with Tween-80
[3] = endpoint: mean survival time, dose: 100.0 mg/kg/injection, schedule: Q01DX001 (ip), vehicle: saline with Tween-80
[4] = endpoint: mean survival time, dose: 100.0 mg/kg/injection, schedule: Q04DX003 (ip), vehicle: saline with Tween-80
[5] = endpoint: mean survival time, dose: 200.0 mg/kg/injection, schedule: Q04DX003 (ip), vehicle: saline with Tween-80
[6] = endpoint: mean survival time, dose: 50.0 mg/kg/injection, schedule: Q01DX009 (ip), vehicle: saline with Tween-80
[7] = endpoint: mean survival time, dose: 400.0 mg/kg/injection, schedule: Q04DX003 (ip), vehicle: saline with Tween-80

CCCCCCCP(=O)(CCCCCCC)CCCCCCC
T/C [1]: 107 % of control | T/C [2]: 96 % of control | T/C [3]: 100 % of control

N#CC(=C1CCN(Cc2ccccc2)CC1)c1ccccc1
T/C (endpoint: median survival time, dose: 50.0 mg/kg/injection, schedule: Q04DX002 (ip), vehicle: saline with Tween-80): 100 % of control | T/C (endpoint: median survival time, dose: 100.0 mg/kg/injection, schedule: Q04DX002 (ip), vehicle: saline with Tween-80): 100 % of control | T/C (endpoint: median survival time, dose: 200.0 mg/kg/injection, schedule: Q04DX002 (ip), vehicle: saline with Tween-80): 111 % of control

Cc1ccoc1N(O)c1occc1C
T/C [3]: 93 % of control | T/C (endpoint: mean survival time, dose: 200.0 mg/kg/injection, schedule: Q01DX001 (ip), vehicle: saline with Tween-80): 101 % of control | T/C (endpoint: mean survival time, dose: 400.0 mg/kg/injection, schedule: Q01DX001 (ip), vehicle: saline with Tween-80): 95 % of control

CC(C#N)(Cc1ccccc1)Nc1ccccc1 (centres undefined)
T/C [4]: 97 % of control | T/C [5]: 91 % of control

CCCCC(/C=N/N=C/C(CC)CCCC)CC (centres undefined)
T/C (endpoint: mean survival time, dose: 6.25 mg/kg/injection, schedule: Q01DX005 (ip), vehicle: saline with Tween-80): 92 % of control | T/C (endpoint: mean survival time, dose: 6.25 mg/kg/injection, schedule: Q01DX009 (ip), vehicle: saline with Tween-80): 91 % of control | T/C (endpoint: mean survival time, dose: 6.25 mg/kg/injection, schedule: Q04DX002 (ip), vehicle: saline): 98 % of control | T/C (endpoint: mean survival time, dose: 12.5 mg/kg/injection, schedule: Q01DX005 (ip), vehicle: saline with Tween-80): 92 % of control | T/C (endpoint: mean survival time, dose: 12.5 mg/kg/injection, schedule: Q01DX009 (ip), vehicle: saline with Tween-80): 91 % of control | T/C (endpoint: mean survival time, dose: 12.5 mg/kg/injection, schedule: Q04DX002 (ip), vehicle: saline): 103 % of control | T/C (endpoint: mean survival time, dose: 25.0 mg/kg/injection, schedule: Q01DX005 (ip), vehicle: saline with Tween-80): 89 % of control | T/C (endpoint: mean survival time, dose: 25.0 mg/kg/injection, schedule: Q01DX009 (ip), vehicle: saline with Tween-80): 95 % of control | T/C (endpoint: mean survival time, dose: 25.0 mg/kg/injection, schedule: Q04DX002 (ip), vehicle: saline): 103 % of control | T/C (endpoint: mean survival time, dose: 50.0 mg/kg/injection, schedule: Q01DX005 (ip), vehicle: saline with Tween-80): 92 % of control | T/C [6]: 91 % of control | T/C (endpoint: mean survival time, dose: 50.0 mg/kg/injection, schedule: Q04DX002 (ip), vehicle: saline with Tween-80): 95 % of control | T/C (endpoint: mean survival time, dose: 50.0 mg/kg/injection, schedule: Q04DX002 (ip), vehicle: saline): 106 % of control | T/C (endpoint: mean survival time, dose: 200.0 mg/kg/injection, schedule: Q04DX002 (ip), vehicle: saline with Tween-80): 88 % of control

O=C(CC(O)(C(F)(F)F)C(F)(F)F)C(Cl)C(O)(C(F)(F)F)C(F)(F)F (centres undefined)
T/C (endpoint: mean survival time, dose: 100.0 mg/kg/injection, schedule: Q01DX001 (ip), vehicle: other): 102 % of control

NCC1CCC(C(=O)O)CC1 (centres undefined)
T/C (endpoint: median survival time, dose: 12.5 mg/kg/injection, schedule: Q01DX009 (ip), vehicle: saline with Tween-80): 101 % of control | T/C (endpoint: median survival time, dose: 25.0 mg/kg/injection, schedule: Q01DX009 (ip), vehicle: saline with Tween-80): 101 % of control | T/C (endpoint: median survival time, dose: 50.0 mg/kg/injection, schedule: Q01DX005 (ip), vehicle: saline with Tween-80): 110 % of control | T/C (endpoint: median survival time, dose: 50.0 mg/kg/injection, schedule: Q01DX009 (ip), vehicle: saline with Tween-80): 100 % of control | T/C (endpoint: median survival time, dose: 100.0 mg/kg/injection, schedule: Q01DX005 (ip), vehicle: saline with Tween-80): 104 % of control | T/C (endpoint: median survival time, dose: 100.0 mg/kg/injection, schedule: Q01DX009 (ip), vehicle: saline with Tween-80): 101 % of control | T/C (endpoint: median survival time, dose: 200.0 mg/kg/injection, schedule: Q01DX005 (ip), vehicle: saline with Tween-80): 97 % of control | T/C (endpoint: median survival time, dose: 200.0 mg/kg/injection, schedule: Q01DX009 (ip), vehicle: saline with Tween-80): 100 % of control | T/C (endpoint: median survival time, dose: 400.0 mg/kg/injection, schedule: Q01DX005 (ip), vehicle: saline with Tween-80): 105 % of control | T/C (endpoint: median survival time, dose: 400.0 mg/kg/injection, schedule: Q01DX009 (ip), vehicle: saline with Tween-80): 100 % of control | T/C (endpoint: median survival time, dose: 800.0 mg/kg/injection, schedule: Q01DX005 (ip), vehicle: saline with Tween-80): 97 % of control

CCCCCCCC(=O)N/N=C(\CO)[C@]1(O)Cc2c(O)c3c(c(O)c2[C@@H](OC2CC(N)C(O)C(C)O2)C1)C(=O)c1c(OC)cccc1C3=O (some centres undefined)
T/C (endpoint: mean survival time, dose: 1.5 mg/kg/injection, schedule: Q01DX009 (ip), vehicle: saline): 124 % of control | T/C (endpoint: mean survival time, dose: 3.0 mg/kg/injection, schedule: Q01DX009 (ip), vehicle: saline): 122 % of control | T/C (endpoint: mean survival time, dose: 6.0 mg/kg/injection, schedule: Q01DX009 (ip), vehicle: saline): 122 % of control | T/C (endpoint: mean survival time, dose: 12.0 mg/kg/injection, schedule: Q01DX009 (ip), vehicle: suspension in saline): 118 % of control | T/C (endpoint: mean survival time, dose: 48.0 mg/kg/injection, schedule: Q01DX009 (ip), vehicle: suspension in saline): 162 % of control

O=C1CCc2cccc3cccc(c23)N1
T/C [4]: 98 % of control | T/C [5]: 98 % of control | T/C [7]: 90 % of control

CN1C(/C(C(=O)C(F)(F)F)=C(\O)C(F)(F)F)=NCc2ccccc21
T/C (endpoint: mean survival time, dose: 100.0 mg/kg/injection, schedule: Q04DX003 (ip), vehicle: Klucel (hydroxypropylcellulose) (HPC)): 102 % of control | T/C (endpoint: mean survival time, dose: 200.0 mg/kg/injection, schedule: Q04DX003 (ip), vehicle: Klucel (hydroxypropylcellulose) (HPC)): 98 % of control | T/C (endpoint: mean survival time, dose: 400.0 mg/kg/injection, schedule: Q04DX003 (ip), vehicle: Klucel (hydroxypropylcellulose) (HPC)): 98 % of control

CCOC(=O)NC1=C(N2CC2)C(=O)C(NC(=O)OCC)=C(N2CC2)C1=O
T/C (endpoint: mean survival time, dose: 1.25 mg/kg/injection, schedule: Q01DX009 (oral), vehicle: other): 87 % of control | T/C (endpoint: mean survival time, dose: 1.25 mg/kg/injection, schedule: Q01DX009 (oral), vehicle: saline): 98 % of control | T/C (endpoint: mean survival time, dose: 2.5 mg/kg/injection, schedule: Q01DX009 (oral), vehicle: other): 97 % of control | T/C (endpoint: mean survival time, dose: 2.5 mg/kg/injection, schedule: Q01DX009 (oral), vehicle: saline): 94 % of control | T/C (endpoint: mean survival time, dose: 4.0 mg/kg/injection, schedule: Q01DX009 (sc), vehicle: other): 93 % of control | T/C (endpoint: mean survival time, dose: 10.0 mg/kg/injection, schedule: Q01DX009 (oral), vehicle: other): 95 % of control | T/C (endpoint: mean survival time, dose: 16.0 mg/kg/injection, schedule: Q04DX003 (ip), vehicle: other): 90 % of control | T/C (endpoint: mean survival time, dose: 20.0 mg/kg/injection, schedule: Q01DX009 (oral), vehicle: other): 87 % of control | T/C (endpoint: median survival time, dose: 0.25 mg/kg/injection, schedule: Q01DX009 (ip), vehicle: saline with Tween-80): 97 % of control | T/C (endpoint: median survival time, dose: 0.5 mg/kg/injection, schedule: Q01DX009 (ip), vehicle: saline with Tween-80): 110 % of control | T/C (endpoint: median survival time, dose: 1.0 mg/kg/injection, schedule: Q08DX002 (ip), vehicle: saline with Tween-80): 110 % of control | T/C (endpoint: median survival time, dose: 4.0 mg/kg/injection, schedule: Q01DX009 (ip), vehicle: saline with Tween-80): 90 % of control

N#Cc1cnn2ccn(C3OC(CO)C(O)C3O)c12 (centres undefined)
T/C (endpoint: median survival time, dose: 9.38 mg/kg/injection, schedule: Q01DX005 (ip), vehicle: water): 97 % of control | T/C (endpoint: median survival time, dose: 18.75 mg/kg/injection, schedule: Q01DX005 (ip), vehicle: water): 100 % of control | T/C (endpoint: median survival time, dose: 37.5 mg/kg/injection, schedule: Q01DX005 (ip), vehicle: water): 98 % of control | T/C (endpoint: median survival time, dose: 75.0 mg/kg/injection, schedule: Q01DX005 (ip), vehicle: water): 98 % of control | T/C (endpoint: median survival time, dose: 150.0 mg/kg/injection, schedule: Q01DX005 (ip), vehicle: water): 97 % of control

Nc1[nH]c(=O)[nH]c(=O)c1N
T/C [6]: 93 % of control | T/C (endpoint: mean survival time, dose: 100.0 mg/kg/injection, schedule: Q01DX009 (ip), vehicle: saline with Tween-80): 93 % of control | T/C (endpoint: mean survival time, dose: 100.0 mg/kg/injection, schedule: Q04DX002 (ip), vehicle: saline): 97 % of control | T/C [4]: 108 % of control | T/C (endpoint: mean survival time, dose: 200.0 mg/kg/injection, schedule: Q01DX009 (ip), vehicle: saline with Tween-80): 93 % of control | T/C (endpoint: mean survival time, dose: 200.0 mg/kg/injection, schedule: Q04DX002 (ip), vehicle: saline): 97 % of control | T/C [5]: 108 % of control

CCCOC(=O)C1CCCCC1C(=O)OCCC (centres undefined)
T/C (endpoint: mean survival time, dose: 100.0 mg/kg/injection, schedule: Q04DX003 (ip), vehicle: saline): 98 % of control | T/C (endpoint: mean survival time, dose: 200.0 mg/kg/injection, schedule: Q04DX003 (ip), vehicle: saline): 98 % of control | T/C (endpoint: mean survival time, dose: 400.0 mg/kg/injection, schedule: Q04DX003 (ip), vehicle: saline): 104 % of control

ClCc1ccc(Cl)cc1
T/C [1]: 102 % of control | T/C [2]: 106 % of control | T/C [3]: 92 % of control and 102 % of control

CCC(=O)C(c1ccccc1)(c1ccccc1)c1ccccc1
T/C (endpoint: mean survival time, dose: 25.0 mg/kg/injection, schedule: Q04DX002 (ip), vehicle: other): 98 % of control | T/C (endpoint: mean survival time, dose: 50.0 mg/kg/injection, schedule: Q04DX002 (ip), vehicle: other): 95 % of control | T/C (endpoint: mean survival time, dose: 100.0 mg/kg/injection, schedule: Q04DX002 (ip), vehicle: other): 95 % of control

O=C1NC(=O)C2(CCc3ccccc32)N1 (centres undefined)
T/C [4]: 110 % of control | T/C [5]: 98 % of control | T/C [7]: 96 % of control
